PMC5765142, “New anti-inflammatory guaianes from the Atlantic hydrotherm-derived fungus Graphostroma sp. MCCC 3A00421” (Scientific Reports, 2018)
Where two headings read alike, the source gives them in different places.

Assays:
Type in all cases: cell-based
[1] = tested on: LPS-induced nitric oxide (NO) production in RAW264.7 macrophages; assay: Inhibition of LPS-induced NO production in RAW264.7 macrophages (anti-inflammatory assay); details: LPS-stimulated, read-out: IC50 (μM), anti-inflammatory activity against LPS-stimulated NO production
Experimental: All isolates were evaluated for their anti-inflammatory activities against LPS-induced NO production in RAW264.7 macrophages (Table 3). […] This experiment was conducted according the reported procedure.

[2] = tested on: RAW 264.7 macrophages; assay: Cytotoxicity (CC50) in RAW 264.7 macrophages
Experimental: (§1) This experiment was conducted according the reported procedure.

[3] = Cytotoxicity (CC50) in RAW 264.7 macrophages; details: mouse
Experimental: as §1

[4] = Mus musculus, RAW264.7, RAW 264.7 macrophages

Row | IC50 ([1]; RAW 264.7 macrophages) | IC50 [1, 4] | Compound | CC50 [2] | CC50 [3]
1 | 310 µM |  | C=C(C)C1CCC(C)(O)C2CC(O)C(C)C2C1 [Compound 1, (1R,3R,4R,5S,7R,10R)-11(13)-en-3,10-dihydroxyguaiene] |  | > 50 µM
2 |  | 103 µM | C=C(C)C1CCC(C)(O)C2CCC(C)C2C1 [Compound 2, (1R,4S,5S,7R,10R)-11(13)-en-10-hydroxyguaiene] |  | > 50 µM
3 | 113 µM |  | C=C(C)C1CCC(C)(O)C2CC(O)C(C)C2C1 [Compound 3, (1R,3S,4R,5R,7R,10R)-11(13)-en-3,10-dihydroxyguaiene] | > 50 µM | 
4 |  | 72.9 µM | C=C(C)[C@@H]1CC[C@@](C)(O)[C@@H]2CC(=O)[C@H](C)[C@H]2C1 [Compound 4, (1R,4S,5S,7R,10R)-3-oxo-11(13)-en-10-hydroxyguaiene] |  | > 50 µM
5 |  | 138 µM | C=C(C)C1CCC(C)(O)C2C(O)CC(C)C2C1 [Compound 5, (1S,2S,4S,5S,7R,10R)-11(13)-en-2,10-dihydroxyguaiene] |  | > 50 µM
6 |  | 14.2 µM | C=C(CO)[C@@H]1CC[C@@](C)(O)[C@H]2[C@@H](C1)[C@@H](C)C[C@@H]2O [Compound 6, (1S,2S,4S,5S,7R,10R)-11(13)-en-2,10,12-trihydroxyguaiene] |  | > 50 µM
7 |  | 101 µM | CC(=O)OCC(C)(O)C1CCC(C)(O)C2C(O)CC(C)C2C1 [Compound 7, (1S,2S,4S,5S,7R,10R,11R)-12-acetyl-2,10,11-trihydroxyguaiane] |  | > 50 µM
8 |  | 166 µM | C[C@](O)(CO)[C@@H]1CC[C@@](C)(O)[C@@H]2CC[C@@](C)(O)[C@@H]2C1 [Compound 8, (1R,4R,5R,7R,10R)-4,10,11-trihydroxyguaiane] |  | > 50 µM
9 |  | 79.1 µM | C[C@H]1CC[C@@H]2[C@H]1C[C@H]([C@@H](C)C(=O)O)CC[C@@]2(C)O [Compound 9, (1R,4S,5S,7R,10R,11R)-10-hydroxyguai-12-oic acid] |  | > 50 µM
10 |  | 150 µM | C[C@H]1C[C@H](O)[C@@H]2[C@H]1C[C@H]([C@@](C)(O)CO)CC[C@@]2(C)O [Compound 10, (1S,2S,4S,5S,7R,10R)-guaiane-2,10,11,12-tetraol] |  | > 50 µM
11 |  | 141 µM | C[C@H]1CC[C@@H]2[C@H]1C[C@H]([C@](C)(O)CO)CC[C@@]2(C)O [Compound 11, (1R,4S,5S,7R,10R,11S)-guaiane-10,11,12-triol] |  | > 50 µM
12 |  | 122 µM | C[C@@H]1[C@@H]2C[C@H]([C@](C)(O)CO)CC[C@@](C)(O)[C@@H]2C[C@@H]1O [Compound 12, (1R,3S,4R,5S,7R,10R,11S)-guaiane-3,10,11,12-tetraol] |  | > 50 µM
13 |  | 88.2 µM | C[C@H]1CC[C@@H]2[C@H]1C[C@H]([C@@](C)(O)CO)C[C@@H](O)[C@@]2(C)O [Compound 13, (1R,4S,5S,7S,9R,10S,11R)-guaiane-9,10,11,12-tetraol] |  | > 50 µM

Row | Compound | IC50 ([1]; RAW 264.7 macrophages) | IC50 [1, 4] | CC50 [2] | CC50 [3]
14 | N=C(N)NN [Aminoguanidine, aminoguanidine, reference compound] | 23.4 µM |  | > 50 µM | 
